From ChEMBL document CHEMBL1148144, “Horiolide, a novel norditerpenoid from Indian ocean soft coral of the genus Sinularia” (J Nat Prod, 2002)
The source made the active and inactive calls.

Tests used:
Format in all cases: functional, organism-based
[1] = tested on: Chlorella vulgaris; assay: Antialgal activity against Chlorella vulgaris
[2] = tested on: Bacillus subtilis; assay: Antibacterial activity against Bacillus subtilis
[3] = tested on: Escherichia coli; assay: Antibacterial activity against Escherichia coli
[4] = tested on: Staphylococcus aureus; assay: Antibacterial activity against Staphylococcus aureus
[5] = tested on: Chlorella salina; assay: Antialgal activity against Chlorella salina
[6] = tested on: Rhizomucor miehei; assay: Antifungal activity against Mucor miehei
[7] = tested on: Chlorella sorokiniana; assay: Antialgal activity against Chlorella sorokiniana

Measured: Activity

C=C(C)[C@@H]1CC(=O)[C@H]2[C@H](C1)[C@@H]1C(=O)O[C@H]3[C@@H]1CC(=O)[C@H]2[C@H]3C(C)=O
inactive: [1] | [2] | [3] | [4] | [5] | [6] | [7]
